We go through 28 compounds from ChEMBL document CHEMBL1143771, “Isothiazoles as active-site inhibitors of HCV NS5B polymerase” (Bioorg Med Chem Lett, 2007).

Where only a bound is given, the exact number is not on record here.

In general, IC50 refers to the concentration that inhibits the measured activity by half. The term EC50 denotes the concentration at which the effect is half-maximal.

The nature of assay [1]: Inhibition of HCV recombinant NS5B polymerase. Also noted: species or system Hepacivirus hominis.
In assay [2] the test system is Hepatitis C virus. As to the kind of experiment: Antiviral activity against Hepatitis C virus by cell based replicon assay. The format is functional, organism-based, Hepacivirus hominis. A general note: A replicon is a self-replicating genome or part of one, used to study replication in cells.

With `COc1cccc(Nc2snc(O)c2C#N)c1`, in assay [1], the IC50 was > 100 µM.

As for `N#Cc1c(O)nsc1Nc1cc(Cl)cc(Cl)c1`, a half-maximal response in assay [2] (EC50) required 0.1 µM. For the same compound, in assay [1], the IC50 was found to be 0.2 µM.

Consider `Cc1cc(C)cc(Nc2snc(O)c2C#N)c1`, for which the IC50 in assay [1] was > 100 µM.

As to `N#Cc1c(O)nsc1Nc1cc(Br)cc(C(F)(F)F)c1`, the IC50 in assay [1] came to 0.3 µM.

For `COC(=O)c1ccc(-c2ccc(Cl)cc2Nc2snc(O)c2C#N)o1`, the IC50 in assay [1] was determined as 1.8 µM.

As to `N#Cc1c(O)nsc1Nc1cccc(F)c1`, it took 2.9 µM to reach a half-maximal effect in assay [2] (EC50). In addition, the IC50 in assay [1] was determined as 0.9 µM.

Compound `N#Cc1c(O)nsc1Nc1cc(F)cc(F)c1` had an EC50 in assay [2] of 0.22 µM. For the same compound, in assay [1], the IC50 was 0.3 µM.

Regarding `N#Cc1c(O)nsc1Nc1ccccc1Oc1ccccc1`, the IC50 in assay [1] came to 1.3 µM.

In the case of `CCCCS(=O)(=O)c1cccc(Nc2snc(O)c2C#N)c1`, the IC50 in assay [1] stood at 8.3 µM.

In turn, `N#Cc1c(O)nsc1Nc1cc(F)ccc1Oc1ccccc1` displayed an EC50 in assay [2] of 3.4 µM. For the same compound, in assay [1], the IC50 is 0.5 µM.

As for `COC(=O)c1ccc(Cl)cc1Nc1snc(O)c1C#N`, in assay [1], the IC50 stood at 4.7 µM.

For the compound `N#Cc1c(O)nsc1Nc1ccc(I)cc1`, the response in assay [2] was half-maximal at 1.1 µM (EC50). For the same compound, the IC50 in assay [1] was determined as 1.2 µM.

Consider `N#Cc1c(O)nsc1Nc1ccc(F)cc1`, for which, in assay [1], the IC50 is 1.2 µM.

Consider `N#Cc1c(O)nsc1Nc1cc(Cl)ccc1OCc1ccc2ccccc2c1`, for which the IC50 in assay [1] was found to be 6.4 µM.

On to `N#Cc1c(O)noc1Nc1cc(Br)cc(Br)c1`, for which the IC50 in assay [1] is 33 µM.

On to `N#Cc1c(O)nsc1Nc1nc2ccc(F)cc2s1`, for which the IC50 in assay [1] came to 44 µM.

As for `N#Cc1c(O)nsc1Nc1cccc(S(N)(=O)=O)c1`, in assay [1], the IC50 is 9.7 µM.

On to `N#Cc1c(O)nsc1Nc1cccc(S(=O)(=O)NC23CC4CC(CC(C4)C2)C3)c1`, for which the IC50 in assay [1] was 1.4 µM.

Take `N#Cc1c(O)nsc1Nc1cc(Cl)cc(S(=O)(=O)NC23CC4CC(CC(C4)C2)C3)c1`: the IC50 in assay [1] stood at 1.8 µM.

Take `N#Cc1c(O)nsc1Nc1ccc(Cl)cc1Cl`: the IC50 in assay [1] was found to be 0.7 µM.

`N#Cc1c(O)nsc1Nc1cc(C(F)(F)F)cc(C(F)(F)F)c1` had an EC50 in assay [2] of 2 µM. Moreover, the IC50 in assay [1] is 5.9 µM.

Take `N#Cc1c(O)nsc1Nc1cc(C(F)(F)F)cc(S(=O)(=O)NC23CC4CC(CC(C4)C2)C3)c1`: the IC50 in assay [1] was 3.5 µM.

Consider `N#Cc1c(O)nsc1Nc1cc(Br)ccc1OCc1ccccc1`, for which, in assay [1], the IC50 is 0.3 µM.

With `N#Cc1c(O)nsc1Nc1cc(Cl)ccc1OCc1ccccc1`, the IC50 in assay [1] was determined as 1 µM.

As for `COC(=O)c1cc(Nc2snc(O)c2C#N)cc(C(F)(F)F)c1`, in assay [1], the IC50 is 2 µM.

On to `N#Cc1c(O)nsc1Nc1cc(C(=O)O)cc(C(F)(F)F)c1`, for which, in assay [1], the 50% inhibitory concentration (IC50) came out at 1.5 µM.

For the compound `CS(=O)(=O)c1cccc(Nc2snc(O)c2C#N)c1`, in assay [1], the IC50 turned out to be 9.7 µM.

With `N#Cc1c(O)nsc1Nc1cc(Br)ccc1OCc1ccc2ccccc2c1`, in assay [1], the IC50 turned out to be 1.7 µM.
